Data from ChEMBL document CHEMBL4371076 (J Med Chem, 2019).

How the values were obtained:
[1] = biological target: T1, Sodium channel protein type 9 subunit alpha (Homo sapiens, UniProt Q15858); experiment: Inhibition of human Nav1.7 expressed in HEK293 cells after 600 secs at -60 mV holding potential by ion works barracuda population patch clamp method; type: cell-based
[2] = biological target: Sodium channel protein type 5 subunit alpha (Homo sapiens, UniProt Q14524); experiment: Inhibition of human Nav1.5 expressed in HEK293 cells after 600 secs at -50 mV holding potential by ion works barracuda population patch clamp method; type: cell-based
[3] = Metabolic stability in human liver microsomes assessed as parent compound remaining at 0.5 uM after 10 mins; type: ADME, Microsome; conditions: read-out: Stability
Cytochrome P450 2B6 [4] = biological target: T2, Cytochrome P450 2B6 (Homo sapiens, UniProt P20813); experiment: Inhibition of CYP2B6 in human liver microsomes; type: ADME; conditions: human, microsomes
T2 sequence (P20813 whole entry): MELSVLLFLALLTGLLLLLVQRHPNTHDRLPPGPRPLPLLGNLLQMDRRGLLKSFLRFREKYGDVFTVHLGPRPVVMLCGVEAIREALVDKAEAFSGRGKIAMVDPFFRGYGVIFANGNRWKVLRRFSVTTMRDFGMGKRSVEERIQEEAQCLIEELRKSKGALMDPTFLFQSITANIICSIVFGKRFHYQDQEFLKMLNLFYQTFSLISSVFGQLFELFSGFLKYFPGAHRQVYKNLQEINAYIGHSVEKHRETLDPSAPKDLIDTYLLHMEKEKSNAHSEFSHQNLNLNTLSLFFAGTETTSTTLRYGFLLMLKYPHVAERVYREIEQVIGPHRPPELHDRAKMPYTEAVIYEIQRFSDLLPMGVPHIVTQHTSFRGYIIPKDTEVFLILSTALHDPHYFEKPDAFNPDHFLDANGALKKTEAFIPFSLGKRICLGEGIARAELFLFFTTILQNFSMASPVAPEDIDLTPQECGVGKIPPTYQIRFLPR

[5] = biological target: T1, Sodium channel protein type 9 subunit alpha; experiment: Inhibition of recombinant human Nav1.7 expressed in HEK293 cells at -70 mV holding potential by patch clamp electrophysiology method; type: cell-based
Cytochrome P450 3A4 [6] = biological target: T3, Cytochrome P450 3A4 (Homo sapiens, UniProt P08684); experiment: Time-dependant inhibition of CYP3A4 in human liver microsomes; type: ADME
Cytochrome P450 2B6 [7] = biological target: T2, Cytochrome P450 2B6; experiment: Time-dependant inhibition of CYP2B6 in human liver microsomes; type: ADME
Cytochrome P450 2D6 [8] = biological target: T4, Cytochrome P450 2D6 (Homo sapiens, UniProt P10635); experiment: Inhibition of CYP2D6 in human liver microsomes; type: ADME; conditions: human, microsomes
Cytochrome P450 2C9 [9] = biological target: T5, Cytochrome P450 2C9 (Homo sapiens, UniProt P11712); experiment: Time-dependant inhibition of CYP2C9 in human liver microsomes; type: ADME
Cytochrome P450 2C19 [10] = biological target: T6, Cytochrome P450 2C19 (Homo sapiens, UniProt P33261); experiment: Time-dependant inhibition of CYP2C19 in human liver microsomes; type: ADME
Cytochrome P450 2C9 [11] = biological target: T5, Cytochrome P450 2C9; experiment: Inhibition of CYP2C9 in human liver microsomes; type: ADME; conditions: human, microsomes
Cytochrome P450 3A4 [12] = biological target: T3, Cytochrome P450 3A4; experiment: Inhibition of CYP3A4 in human liver microsomes; type: ADME; conditions: human, microsomes
[13] = Permeability of the compound at pH 5.5 by PAMPA; type: ADME; conditions: read-out: permeability
[14] = Fraction unbound in mouse plasma; type: ADME, cell-free
[15] = Metabolic stability in mouse liver microsomes assessed as parent compound remaining at 0.5 uM after 10 mins; type: ADME, Microsome; conditions: read-out: Stability
[16] = Metabolic stability in rat liver microsomes assessed as parent compound remaining at 0.5 uM after 10 mins; type: ADME, Microsome; conditions: read-out: Stability
Cytochrome P450 2C19 [17] = biological target: T6, Cytochrome P450 2C19; experiment: Inhibition of CYP2C19 in human liver microsomes; type: ADME; conditions: human, microsomes
[18] = Permeability of the compound at pH 7.4 by PAMPA; type: ADME; conditions: read-out: permeability
Cytochrome P450 2C8 [19] = biological target: T7, Cytochrome P450 2C8 (Homo sapiens, UniProt P10632); experiment: Inhibition of CYP2C8 in human liver microsomes; type: ADME; conditions: human, microsomes
T7 sequence (P10632 whole entry): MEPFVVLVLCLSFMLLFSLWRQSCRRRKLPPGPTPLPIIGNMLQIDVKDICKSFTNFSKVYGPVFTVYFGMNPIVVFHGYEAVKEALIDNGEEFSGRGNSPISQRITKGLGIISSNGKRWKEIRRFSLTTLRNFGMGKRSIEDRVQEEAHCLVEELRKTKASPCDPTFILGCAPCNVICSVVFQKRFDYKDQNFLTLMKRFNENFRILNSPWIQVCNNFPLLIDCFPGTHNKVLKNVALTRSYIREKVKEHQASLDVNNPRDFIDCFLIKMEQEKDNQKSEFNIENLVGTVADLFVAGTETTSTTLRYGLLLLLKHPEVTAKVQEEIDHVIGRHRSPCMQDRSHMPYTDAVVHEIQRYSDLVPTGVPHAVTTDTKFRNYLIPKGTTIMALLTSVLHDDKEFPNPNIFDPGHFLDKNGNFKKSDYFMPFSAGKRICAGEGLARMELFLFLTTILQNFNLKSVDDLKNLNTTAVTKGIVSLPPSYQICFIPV

Cytochrome P450 2D6 [20] = biological target: T4, Cytochrome P450 2D6; experiment: Time-dependant inhibition of CYP2D6 in human liver microsomes; type: ADME
Cytochrome P450 2C8 [21] = biological target: T7, Cytochrome P450 2C8; experiment: Time-dependant inhibition of CYP2C8 in human liver microsomes; type: ADME
[22] = Fraction unbound in human plasma; type: ADME, cell-free

T1 sequence (Q15858 whole entry): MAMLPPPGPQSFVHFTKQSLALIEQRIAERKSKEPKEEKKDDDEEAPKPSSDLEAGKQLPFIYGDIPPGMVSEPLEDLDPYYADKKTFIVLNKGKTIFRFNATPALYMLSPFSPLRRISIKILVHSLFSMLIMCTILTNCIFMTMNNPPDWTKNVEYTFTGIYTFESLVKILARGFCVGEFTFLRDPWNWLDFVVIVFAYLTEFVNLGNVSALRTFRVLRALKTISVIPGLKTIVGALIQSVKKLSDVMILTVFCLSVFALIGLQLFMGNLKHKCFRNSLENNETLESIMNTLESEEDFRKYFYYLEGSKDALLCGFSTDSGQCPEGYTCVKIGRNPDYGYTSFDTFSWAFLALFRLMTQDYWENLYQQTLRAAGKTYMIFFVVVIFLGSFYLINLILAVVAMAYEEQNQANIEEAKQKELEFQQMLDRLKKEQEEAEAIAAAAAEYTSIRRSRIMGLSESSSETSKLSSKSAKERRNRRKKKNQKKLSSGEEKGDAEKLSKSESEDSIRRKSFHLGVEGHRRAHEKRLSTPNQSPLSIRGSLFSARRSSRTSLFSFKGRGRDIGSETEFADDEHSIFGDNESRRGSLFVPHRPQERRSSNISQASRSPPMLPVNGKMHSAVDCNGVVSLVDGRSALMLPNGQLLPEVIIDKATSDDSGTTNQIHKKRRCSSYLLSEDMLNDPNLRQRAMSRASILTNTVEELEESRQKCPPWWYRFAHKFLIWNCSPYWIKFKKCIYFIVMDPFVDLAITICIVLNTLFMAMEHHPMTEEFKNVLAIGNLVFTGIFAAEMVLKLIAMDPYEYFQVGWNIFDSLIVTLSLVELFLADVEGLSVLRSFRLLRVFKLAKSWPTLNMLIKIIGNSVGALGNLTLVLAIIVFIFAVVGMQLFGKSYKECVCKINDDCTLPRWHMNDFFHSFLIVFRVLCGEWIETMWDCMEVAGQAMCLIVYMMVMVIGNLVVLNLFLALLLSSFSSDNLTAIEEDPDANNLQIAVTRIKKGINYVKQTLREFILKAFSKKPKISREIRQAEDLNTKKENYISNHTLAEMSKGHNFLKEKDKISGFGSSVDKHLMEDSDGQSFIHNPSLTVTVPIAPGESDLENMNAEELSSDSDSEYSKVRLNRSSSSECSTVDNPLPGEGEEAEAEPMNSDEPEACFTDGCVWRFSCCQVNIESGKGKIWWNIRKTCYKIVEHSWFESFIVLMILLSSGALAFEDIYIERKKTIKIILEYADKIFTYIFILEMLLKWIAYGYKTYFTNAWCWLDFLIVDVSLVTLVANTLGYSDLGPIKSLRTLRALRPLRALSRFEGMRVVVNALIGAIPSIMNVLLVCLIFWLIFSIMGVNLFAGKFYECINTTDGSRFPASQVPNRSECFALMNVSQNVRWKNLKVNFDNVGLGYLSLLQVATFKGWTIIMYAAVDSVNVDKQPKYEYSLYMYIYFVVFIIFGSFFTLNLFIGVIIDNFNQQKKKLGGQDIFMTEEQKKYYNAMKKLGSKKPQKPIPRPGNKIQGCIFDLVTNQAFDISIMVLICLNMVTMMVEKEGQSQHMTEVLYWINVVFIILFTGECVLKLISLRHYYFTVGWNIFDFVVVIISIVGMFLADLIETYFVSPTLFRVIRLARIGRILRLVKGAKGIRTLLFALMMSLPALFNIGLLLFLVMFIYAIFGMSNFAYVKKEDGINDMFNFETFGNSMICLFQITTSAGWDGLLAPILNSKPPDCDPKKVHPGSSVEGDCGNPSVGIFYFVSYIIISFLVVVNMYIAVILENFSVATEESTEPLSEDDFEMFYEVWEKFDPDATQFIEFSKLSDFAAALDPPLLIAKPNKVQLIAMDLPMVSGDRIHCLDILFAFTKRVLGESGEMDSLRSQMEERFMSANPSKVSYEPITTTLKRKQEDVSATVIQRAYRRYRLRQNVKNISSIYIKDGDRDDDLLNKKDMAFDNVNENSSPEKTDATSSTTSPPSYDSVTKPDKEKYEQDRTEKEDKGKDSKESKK
T4 sequence (P10635 whole entry): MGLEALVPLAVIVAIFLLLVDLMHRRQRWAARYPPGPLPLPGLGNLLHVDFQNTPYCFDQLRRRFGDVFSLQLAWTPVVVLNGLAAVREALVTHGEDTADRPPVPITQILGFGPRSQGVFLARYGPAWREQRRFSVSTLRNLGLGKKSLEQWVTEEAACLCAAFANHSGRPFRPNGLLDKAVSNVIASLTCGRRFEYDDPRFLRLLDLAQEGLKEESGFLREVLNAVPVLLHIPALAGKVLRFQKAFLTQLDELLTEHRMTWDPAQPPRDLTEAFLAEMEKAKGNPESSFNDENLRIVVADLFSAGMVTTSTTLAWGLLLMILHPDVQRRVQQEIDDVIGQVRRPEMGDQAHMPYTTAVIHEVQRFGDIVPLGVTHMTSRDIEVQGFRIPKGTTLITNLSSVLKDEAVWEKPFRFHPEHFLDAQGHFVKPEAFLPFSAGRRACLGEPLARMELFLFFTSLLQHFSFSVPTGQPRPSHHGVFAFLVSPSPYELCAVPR
Sequence of Sodium channel protein type 5 subunit alpha (Q14524 whole entry): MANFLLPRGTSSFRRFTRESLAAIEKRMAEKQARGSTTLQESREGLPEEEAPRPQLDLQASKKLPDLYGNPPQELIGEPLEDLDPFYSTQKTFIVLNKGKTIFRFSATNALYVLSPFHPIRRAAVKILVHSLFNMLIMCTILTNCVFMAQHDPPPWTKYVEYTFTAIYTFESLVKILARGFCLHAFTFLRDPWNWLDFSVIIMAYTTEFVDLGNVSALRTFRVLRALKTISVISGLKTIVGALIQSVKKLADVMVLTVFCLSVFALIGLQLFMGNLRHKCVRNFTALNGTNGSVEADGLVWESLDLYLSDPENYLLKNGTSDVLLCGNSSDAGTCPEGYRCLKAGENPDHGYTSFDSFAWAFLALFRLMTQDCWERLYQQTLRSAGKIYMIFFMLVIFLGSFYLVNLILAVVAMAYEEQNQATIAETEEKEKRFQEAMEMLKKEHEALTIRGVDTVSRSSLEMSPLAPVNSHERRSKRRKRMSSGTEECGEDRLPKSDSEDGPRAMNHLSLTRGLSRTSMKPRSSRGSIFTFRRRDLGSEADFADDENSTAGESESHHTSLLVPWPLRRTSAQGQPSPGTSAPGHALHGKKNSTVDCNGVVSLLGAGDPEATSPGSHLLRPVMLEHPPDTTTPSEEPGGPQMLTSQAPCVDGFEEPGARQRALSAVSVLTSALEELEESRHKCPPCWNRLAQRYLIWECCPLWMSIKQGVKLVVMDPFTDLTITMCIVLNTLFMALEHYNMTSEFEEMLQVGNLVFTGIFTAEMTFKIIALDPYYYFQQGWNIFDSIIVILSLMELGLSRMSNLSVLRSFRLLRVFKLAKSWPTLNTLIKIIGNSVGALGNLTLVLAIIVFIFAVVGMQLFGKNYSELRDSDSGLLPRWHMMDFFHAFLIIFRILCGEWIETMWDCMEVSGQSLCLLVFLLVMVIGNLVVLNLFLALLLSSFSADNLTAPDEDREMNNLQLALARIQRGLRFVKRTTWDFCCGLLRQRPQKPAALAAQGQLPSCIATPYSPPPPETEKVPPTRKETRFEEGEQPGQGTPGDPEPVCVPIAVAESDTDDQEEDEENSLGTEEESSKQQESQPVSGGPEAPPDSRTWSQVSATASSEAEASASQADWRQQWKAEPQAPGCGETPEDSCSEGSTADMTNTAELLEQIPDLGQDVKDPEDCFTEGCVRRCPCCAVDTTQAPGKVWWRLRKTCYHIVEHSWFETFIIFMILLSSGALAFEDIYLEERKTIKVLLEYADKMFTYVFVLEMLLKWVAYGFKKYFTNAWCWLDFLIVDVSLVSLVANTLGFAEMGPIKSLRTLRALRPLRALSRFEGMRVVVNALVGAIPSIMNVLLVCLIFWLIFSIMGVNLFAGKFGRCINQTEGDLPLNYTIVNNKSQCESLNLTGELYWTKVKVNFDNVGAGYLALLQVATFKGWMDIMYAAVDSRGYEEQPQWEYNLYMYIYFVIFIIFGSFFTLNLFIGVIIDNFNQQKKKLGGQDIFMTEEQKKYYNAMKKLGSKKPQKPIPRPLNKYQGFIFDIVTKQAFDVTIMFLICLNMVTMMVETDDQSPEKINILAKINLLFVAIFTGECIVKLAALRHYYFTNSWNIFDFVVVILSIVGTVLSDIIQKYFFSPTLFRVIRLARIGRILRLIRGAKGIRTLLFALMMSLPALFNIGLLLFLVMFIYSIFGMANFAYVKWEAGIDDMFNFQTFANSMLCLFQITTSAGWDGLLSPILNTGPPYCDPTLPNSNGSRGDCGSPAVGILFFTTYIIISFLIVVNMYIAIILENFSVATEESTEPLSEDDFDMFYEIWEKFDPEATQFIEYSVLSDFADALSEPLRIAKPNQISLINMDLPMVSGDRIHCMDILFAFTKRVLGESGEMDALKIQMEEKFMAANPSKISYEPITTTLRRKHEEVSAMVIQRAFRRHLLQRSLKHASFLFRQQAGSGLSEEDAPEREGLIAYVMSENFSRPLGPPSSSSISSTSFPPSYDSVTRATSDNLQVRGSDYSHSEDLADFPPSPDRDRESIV
T5 sequence (P11712 whole entry): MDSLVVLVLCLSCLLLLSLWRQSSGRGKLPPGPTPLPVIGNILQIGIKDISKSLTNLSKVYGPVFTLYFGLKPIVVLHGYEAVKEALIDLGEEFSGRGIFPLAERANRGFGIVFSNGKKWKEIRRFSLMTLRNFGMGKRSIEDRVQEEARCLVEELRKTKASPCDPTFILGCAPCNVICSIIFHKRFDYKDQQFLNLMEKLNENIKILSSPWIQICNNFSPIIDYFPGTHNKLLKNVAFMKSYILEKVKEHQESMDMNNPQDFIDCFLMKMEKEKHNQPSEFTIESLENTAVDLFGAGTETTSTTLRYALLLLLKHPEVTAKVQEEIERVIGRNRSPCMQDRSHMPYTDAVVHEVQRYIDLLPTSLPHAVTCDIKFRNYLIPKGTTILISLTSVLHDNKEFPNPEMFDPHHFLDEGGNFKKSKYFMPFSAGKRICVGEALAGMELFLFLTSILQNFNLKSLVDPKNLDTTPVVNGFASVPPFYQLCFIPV

CC(C)COc1ccc(-c2nn(C)c3cc(C(=O)NS(C)(=O)=O)c(F)cc23)cn1
IC50 [1]: 170 nM
IC50 [2]: > 30000 nM

CC(C)COc1ccc(-c2nn(C)c3cc(C(=O)NS(=O)(=O)C4CC4)c(F)cc23)cn1
remaining at 10 min, 0.5 µM [3]: 91%
inhibition (INH) (Cytochrome P450 2B6 [4]): Not Active
IC50 [5]: 43 nM
TDI (Cytochrome P450 3A4 [6]): Not Active
TDI (Cytochrome P450 2B6 [7]): Not Active
inhibition (INH) (Cytochrome P450 2D6 [8]): Not Active
TDI (Cytochrome P450 2C9 [9]): Not Active
IC50 [1]: 45 nM
TDI (Cytochrome P450 2C19 [10]): Not Active
inhibition (INH) (Cytochrome P450 2C9 [11]): Not Active
inhibition (INH) (Cytochrome P450 3A4 [12]): Not Active
Papp [13]: 76.2 ×10⁻⁶ cm/s
fraction unbound [14]: 0.011
remaining at 10 min, 0.5 µM [15]: 92%
remaining at 10 min, 0.5 µM [16]: 88%
IC50 [2]: 11000 nM
inhibition (INH) (Cytochrome P450 2C19 [17]): Not Active
Papp [18]: 10 ×10⁻⁶ cm/s
inhibition (INH) (Cytochrome P450 2C8 [19]): Not Active
TDI (Cytochrome P450 2D6 [20]): Not Active
TDI (Cytochrome P450 2C8 [21]): Not Active

Cc1cccc(-c2cn(C)c3cc(C(=O)NS(C)(=O)=O)ccc23)c1
IC50 [2]: > 30000 nM

Cn1cc(-c2ccc(C(F)F)cc2)c2ccc(C(=O)NS(C)(=O)=O)cc21
IC50 [2]: > 30000 nM

CC(C)COc1ncc(-c2cn(C)c3cc(C(=O)NS(C)(=O)=O)ccc23)cc1C#N
IC50 [1]: 70 nM
IC50 [2]: 21000 nM

Cn1cc(-c2ccc(C(F)(F)F)cc2)c2ccc(C(=O)NS(=O)(=O)C3CC3)nc21
IC50 [1]: 642 nM

Cn1cc(-c2ccccc2)c2ccc(C(=O)NS(C)(=O)=O)cc21
IC50 [2]: > 30000 nM

Cn1cc(-c2ccc(C(F)(F)F)cc2)c2ccc(C(=O)NS(=O)(=O)c3ccc(F)c(F)c3)cc21
IC50 [1]: > 3000 nM

CC(C)COc1ncc(-c2nn(C)c3cc(C(=O)NS(=O)(=O)C4CC4)ccc23)cc1Cl
IC50 [1]: 104 nM
IC50 [2]: 5900 nM

CC(C)COc1ncc(-c2cn(C)c3nc(C(=O)NS(C)(=O)=O)ccc23)cc1Cl
IC50 [1]: 1400 nM

CN(C)S(=O)(=O)NC(=O)c1ccc2c(-c3ccc(C(F)(F)F)cc3)cn(C)c2c1
IC50 [1]: 1700 nM
IC50 [2]: 19000 nM

Cn1cc(-c2cnc(OCC(C)(C)O)c(Cl)c2)c2ccc(C(=O)NS(C)(=O)=O)cc21
IC50 [1]: > 30000 nM
IC50 [2]: > 30000 nM

Cn1cc(-c2ccc(C(F)F)cc2)c2ccc(C(=O)NS(=O)(=O)C3CC3)cc21
IC50 [2]: > 30000 nM

CCc1cccc(-c2cn(C)c3cc(C(=O)NS(C)(=O)=O)ccc23)c1
IC50 [2]: > 30000 nM

Cn1cc(-c2ccc(C(F)(F)F)cc2)c2ccc(C(=O)NS(C)(=O)=O)nc21
IC50 [1]: 3020 nM

Cn1cc(-c2cnc(OCC3CC3)c(Cl)c2)c2ccc(C(=O)NS(C)(=O)=O)cc21
IC50 [1]: 123 nM

Cn1cc(-c2ccc(OC(F)(F)F)cc2)c2ccc(C(=O)NS(C)(=O)=O)cc21
IC50 [1]: 80 nM
IC50 [2]: 16000 nM

CC(C)COc1ncc(-c2cn(C)c3cc(C(=O)NS(C)(=O)=O)cnc23)cc1Cl
IC50 [1]: 7820 nM

Cn1cc(-c2cccnc2)c2ccc(C(=O)NS(C)(=O)=O)cc21
IC50 [1]: > 3000 nM

CC(C)COc1ncc(-c2cn(C(C)C)c3cc(C(=O)NS(C)(=O)=O)ccc23)cc1Cl
IC50 [2]: 1700 nM

Cn1nc(-c2ccc(C(F)(F)F)cc2)c2ccc(C(=O)NS(C)(=O)=O)cc21
IC50 [1]: 194 nM
IC50 [2]: > 30000 nM

CC(C)COc1ccc(-c2cn(C)c3cc(C(=O)NS(C)(=O)=O)ccc23)cc1
IC50 [1]: 530 nM
IC50 [2]: 18000 nM

CCc1ccc(-c2cn(C)c3cc(C(=O)NS(C)(=O)=O)ccc23)cc1
IC50 [2]: > 30000 nM

Cn1cc(-c2cccc(F)c2F)c2ccc(C(=O)NS(C)(=O)=O)cc21
IC50 [2]: > 30000 nM

CC(C)COc1ccc(-c2nn(C)c3cc(C(=O)NS(C)(=O)=O)ccc23)cn1
IC50 [1]: 314 nM
IC50 [2]: > 30000 nM

Cn1cc(-c2cnc(OCC(F)(F)F)c(Cl)c2)c2ccc(C(=O)NS(C)(=O)=O)cc21
IC50 [1]: 63 nM
IC50 [2]: 12000 nM

Cn1nc(-c2ccc(C(F)(F)F)cc2)c2cc(F)c(C(=O)NS(C)(=O)=O)cc21
IC50 [1]: 52 nM
IC50 [2]: > 30000 nM

COc1cc(-c2cn(C)c3cc(C(=O)NS(=O)(=O)C4CC4)ccc23)cnc1OCC(C)C
IC50 [1]: 85 nM
IC50 [2]: > 30000 nM

CC(C)COc1ccc(-c2cn(C)c3cc(C(=O)NS(C)(=O)=O)ccc23)cn1
IC50 [1]: 164 nM
IC50 [2]: > 30000 nM

Cc1ccc(-c2cn(C)c3cc(C(=O)NS(C)(=O)=O)ccc23)cc1
IC50 [2]: > 30000 nM

Cn1cc(-c2ccc(C(F)(F)F)cc2)c2cnc(C(=O)NS(C)(=O)=O)cc21
IC50 [1]: > 30000 nM

Cn1cc(-c2ccc(C(F)(F)F)cc2)c2ccc(C(=O)NS(=O)(=O)C3CC3)cc21
remaining at 10 min, 0.5 µM [3]: 87%
inhibition (INH) (Cytochrome P450 2B6 [4]): Not Active
IC50 [5]: 8 nM
TDI (Cytochrome P450 3A4 [6]): Not Active
TDI (Cytochrome P450 2B6 [7]): Not Active
inhibition (INH) (Cytochrome P450 2D6 [8]): Not Active
TDI (Cytochrome P450 2C9 [9]): Not Active
IC50 [1]: 104 nM
TDI (Cytochrome P450 2C19 [10]): Not Active
inhibition (INH) (Cytochrome P450 2C9 [11]): Not Active
inhibition (INH) (Cytochrome P450 3A4 [12]): Not Active
Papp [13]: 52.5 ×10⁻⁶ cm/s
fraction unbound [14]: 0.004
remaining at 10 min, 0.5 µM [15]: 87%
remaining at 10 min, 0.5 µM [16]: 92%
IC50 [2]: 8400 nM
inhibition (INH) (Cytochrome P450 2C19 [17]): Not Active
Papp [18]: 13.5 ×10⁻⁶ cm/s
inhibition (INH) (Cytochrome P450 2C8 [19]): Not Active
TDI (Cytochrome P450 2D6 [20]): Not Active
TDI (Cytochrome P450 2C8 [21]): Not Active
fraction unbound [22]: 0.002

Cn1cc(-c2cnc(OCC(F)F)c(Cl)c2)c2ccc(C(=O)NS(C)(=O)=O)cc21
IC50 [1]: 850 nM
IC50 [2]: > 30000 nM

CC(C)COc1ncc(-c2cn(C)c3cc(C(=O)NS(=O)(=O)C4CC4)cnc23)cc1Cl
IC50 [1]: 2000 nM

COc1cc(-c2cn(C)c3cc(C(=O)NS(C)(=O)=O)ccc23)cnc1OCC(C)C
IC50 [1]: 510 nM
IC50 [2]: > 30000 nM

CC(C)COc1ncc(-c2c3ccc(C(=O)NS(=O)(=O)C4CC4)cc3nn2C)cc1Cl
IC50 [1]: 190 nM

CC(C)COc1ncc(-c2n[nH]c3cc(C(=O)NS(C)(=O)=O)ccc23)cc1Cl
IC50 [1]: 280 nM

Cn1cc(-c2ccc(C(F)F)cc2)c2cc(F)c(C(=O)NS(C)(=O)=O)cc21
IC50 [2]: > 30000 nM
